In data set [1] the target is T1, GAL-hERRα (human ERRalpha ligand binding domain) (Homo sapiens, UniProt P11474).
T1 construct: expressed in transfected cells; host or cells: HeLa cells, transient lipofection
Put plainly: GAL4-hERRα ligand binding domain luciferase reporter assay (UASgx4-TK-Luc with CMV-PGC-1α) in HeLa cells. Format: cell-based. As to conditions: for expression of reporter genes modulated by ERRα: HeLa cell. The protocol: To test the effect of the compounds on ERRα and other nuclear hormone receptors, HeLa cells were transiently transfected with expression vectors for the receptors along with appropriate reporter constructs according to methods known in the art. Suitable reporter gene constructs are well known to skilled workers in the fields of biochemistry and molecular biology. Other vectors known in the art can be used in the methods of the present invention.
HeLa cells for the activation assays were grown in Dulbecco's modified Eagle's medium supplemented with 10% resin charcoal-stripped fetal bovine serum at 37° C. in 5% CO2. One day prior to transfection, cells were plated to 50-80% confluence to using phenol red free DMEM-FBS. The cells were transiently transfected by lipofection but other methods of transfection of DNA into cells can be utilized without deviating from the spirit of the invention. Luciferase reporter construct UASgx4-TK-Luc and cytomegalovirus-driven expression vector p-GAL, GAL-hERRα, GAL-L-hERRβ or Gal-mERRγ were added with CMV-PGC-1α. The cells were treated for approximately 24 hours with phenol red free DMEM-FBS containing 0.01% DMSO (control) or 0.01% DMSO with increasing concentrations of DK compounds.

Data set [2] has as its system PGC1α-promoter reporter gene driven by ERRα. Nature of the data set: PGC1α-promoter luciferase reporter assay driven by ERRα in HeLa cells. Format: cell-based, human. The conditions noted are these: about 24 hours, increasing concentrations, FIG. 4. The text has this: HeLa were transiently transfected with the pGL3-promoter (Promega) derivative pGL3-PGC1α-promoter and expression vector for ERRα. The Renilla-Luciferase pRL-CMV Vector (Promega) was included as a control for transfection efficiency. The full length human ERRα was cloned into the expression vector pCMV. The pGL3-PGC1α-promoter was generated by cloning an insert derived from a PCR reaction using human genomic DNA as template and primers based on the 2.6 kbp upstream sequence of the PGC1α transcriptional start site.
HeLa cells for the activation assays were grown in Dulbecco's modified Eagle's medium supplemented with 10% fetal bovine serum at 37° C. in 5% CO2. One day prior to transfection, cells were plated to 50-80% confluence using DMEM-FBS. The cells were transiently transfected by lipofection but other methods of transfection of DNA into cells can be utilized without deviating from the spirit of the invention. Luciferase reporter construct pGL3-PGC1α-promoter and cytomegalovirus-driven expression vector pCMV or pCMV -hERRα were added. The cells were treated for approximately 24 hours with DMEM-FBS containing 0.01% DMSO (control) or 0.01% DMSO with increasing concentrations of DK compounds.
(In general: Reporter assays use an easily measured gene product as a stand-in for the process of interest.)

Data set [3] can be described thus: Liver weight and fatty liver in high-fat-diet mice. The conditions noted are these: for liver weight: compared to rosiglitazone 10 mg/kg/d. Format: in vivo, C57BL/J6 mice. The protocol: Seven weeks old male C57BL/J6 mice were either fed chow diet or a high-fat-diet with 60% calories from lard for 10 weeks. Compounds were administered to animals by gavage for two weeks at different doses. Six groups of animals (n=5) were administered with either vehicle, 10 mg/kg/day rosiglitazone, 0.5 mg/kg/day DK1, 5 mg/kg/day DK1, 0.5 mg/kg/day DK3, or 5 mg/kg/day DK3. Total body weight and livers wet weight from animals were measured. Liver samples to from animals were prepared by histological methods.

Data set [4] in a line: Oral glucose tolerance test in high-fat-diet mice. As to conditions: compared to rosiglitazone 10 mg/kg/day. Format: in vivo, C57BL/J6 mice. The protocol: Seven weeks old male C57BL/J6 mice were either fed chow diet or a high-fat-diet with 60% calories from lard for 10 weeks. Compounds were administered to animals by gavage for two weeks at different doses. Six groups of animals (n=5) were administered with either vehicle, 10 mg/kg/day rosiglitazone, 0.5 mg/kg/day DK1, 5 mg/kg/day DK1, 0.5 mg/kg/day DK3, or 5 mg/kg/day DK3. Animals were then orally fed glucose. Blood samples were withdrawn at time 0, 15, 30, 60 and 120 min. Blood glucose level was measured by monitor (Accu-chek Advantage, Roche). The changes in blood glucose level were plotted against time and the areas under the curve were calculated for the different groups.

The mark [5] stands for this setting: 0.5 mg/kg/day by gavage for two weeks.
The mark [6] stands for this setting: 5 mg/kg/day by gavage for two weeks.

SMILES strings stand for the structures.

T1 sequence (P11474 193-421 limits assumed): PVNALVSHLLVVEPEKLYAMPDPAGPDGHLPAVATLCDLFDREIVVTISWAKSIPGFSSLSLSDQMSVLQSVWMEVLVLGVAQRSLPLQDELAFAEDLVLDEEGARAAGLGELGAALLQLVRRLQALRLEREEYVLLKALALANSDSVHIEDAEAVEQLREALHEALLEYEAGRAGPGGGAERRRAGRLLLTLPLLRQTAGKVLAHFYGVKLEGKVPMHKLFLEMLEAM
T1 sequence (P04386 1-147 partner limits assumed): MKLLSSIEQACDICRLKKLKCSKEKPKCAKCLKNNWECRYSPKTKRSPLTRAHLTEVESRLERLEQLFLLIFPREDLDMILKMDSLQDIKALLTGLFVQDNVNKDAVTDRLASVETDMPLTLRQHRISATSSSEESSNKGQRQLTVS
T1 sequence (O70343 whole entry partner, the tested form may be a part): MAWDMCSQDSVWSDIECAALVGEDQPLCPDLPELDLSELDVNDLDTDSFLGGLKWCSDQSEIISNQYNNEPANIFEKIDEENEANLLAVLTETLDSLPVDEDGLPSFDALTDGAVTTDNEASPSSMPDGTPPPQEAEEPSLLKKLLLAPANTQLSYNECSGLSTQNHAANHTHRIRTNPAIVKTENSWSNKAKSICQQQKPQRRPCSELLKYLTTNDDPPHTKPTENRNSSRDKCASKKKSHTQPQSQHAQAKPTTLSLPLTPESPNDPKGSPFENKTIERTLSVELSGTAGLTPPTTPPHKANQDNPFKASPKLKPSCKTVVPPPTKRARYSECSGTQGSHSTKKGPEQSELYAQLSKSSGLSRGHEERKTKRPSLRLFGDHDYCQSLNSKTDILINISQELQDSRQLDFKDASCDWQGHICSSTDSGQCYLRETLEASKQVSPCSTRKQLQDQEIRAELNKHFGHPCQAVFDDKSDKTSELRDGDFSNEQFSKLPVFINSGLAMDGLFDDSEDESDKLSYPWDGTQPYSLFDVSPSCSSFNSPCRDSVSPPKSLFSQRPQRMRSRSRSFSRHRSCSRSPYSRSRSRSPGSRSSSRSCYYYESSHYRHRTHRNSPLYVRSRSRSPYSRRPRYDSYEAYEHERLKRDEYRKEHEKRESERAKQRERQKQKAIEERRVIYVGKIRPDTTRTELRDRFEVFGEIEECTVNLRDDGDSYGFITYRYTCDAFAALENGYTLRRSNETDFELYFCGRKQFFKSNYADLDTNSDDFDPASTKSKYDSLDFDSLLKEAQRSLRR

With `COc1ccc2c(=O)n(C)c(-c3ccccc3)nc2c1` [Compound 1, 7-methoxy-3-methyl-2-phenylquinazolin-4(3H)-one], in data set [1], the “expression of reporter genes modulated by ERRα” value (from here on “expression”) is recorded as “effectively enhance”. For the same compound, the “reversal of the suppressive effect of ERRα specific inverse agonist XCT-790” value in data set [1] (HeLa cells, FIG. 2) is on record as “dose-dependently reverses”. For the same compound, in data set [1] (HeLa cells, in the presence of CMV-PGC-1α, increasing concentrations), the “activity of GAL-hERRα on reporter construct UASgx4-TK-Luc” value was “dose-dependently enhances”. Further, the “PGC1α-promoter reporter gene driven by ERRα” value in data set [2] is “dose-dependent enhancement”. Further, the liver weight result in data set [3] (setting [5]) and in data set [3] (setting [6]) was “did not increase” throughout. Moreover, the “extent of fatty liver induced by high-fat-diet” value in data set [3] (gavage for two weeks, histology, FIGS. 7 and 8) is “reduce the extent of fatty liver”. Also, the “area under the curve of the oral glucose tolerance test” value in data set [4] (setting [5]) and in data set [4] (setting [6]) was “reduced” throughout.

As for `COc1ccc2c(=O)n(C)c(-c3ccc(F)cc3)nc2c1` [Compound 3, 2-(4-fluorophenyl)-7-methoxy-3-methylquinazolin-4(3H)-one], in data set [1], the “expression” value was “effectively enhance”.

Consider `COc1ccc2c(=O)n(C)c(-c3ccc(Br)cc3)nc2c1` [Compound 4, 2-(4-bromophenyl)-7-methoxy-3-methylquinazolin-4(3H)-one], for which the “expression” value in data set [1] is “effectively enhance”.

These data come from patent publication US20110071148A1, “COMPOUNDS AS THE ESTROGEN RELATED RECEPTORS MODULATORS AND THE USES THEREOF” (Guangzhou Institute of Biomedicine and Health, Chinese …, priority 2008, published 2011).
